{
  "source": "patent US20080242649A1",
  "about": "“New Combination 665” (priority 2007, published 2008)",
  "key": {"[1]": {"test_system": "LPS-induced intra-alveolar neutrophilia", "assay": "Intra-alveolar neutrophil migration after intratracheal LPS challenge in the CRL:CD rat", "format": "in vivo", "method": "Evaluation of Compound Activity on Intra-Alveolar Neutrophil Migration after Intratracheal Challenge with Lipopolysacharride (LPS) in the CRL:CD Rat\nLPS challenge in CRL:CD rats causes an influx of neutrophils into the lungs. Under recoverable gaseous anaesthesia (5% isoflorane in oxygen), rats were dosed via the intratracheal route with vehicle (0.05M phosphate, 0.1% Tween 80, 0.6% saline, pH 6), or compound 30 min before challenge with an intratracheal dose of 10 μg/kg LPS.\nThe rats (250-400 g) were euthanized 4 hr after LPS challenge with 1 mL pentobarbitone sodium. A tracheotomy was performed and a cannula inserted. The airway was then lavaged using 3 mL Isoton at room temperature. The Isoton (BeckmanCoulter, High Wycombe, UK) was left in the airway for 10 seconds before being removed. The bronchio-alveolar lavage (BAL) fluid containing inflammatory cells was placed into a 15 mL centrifuge tube and kept on ice. This process was repeated three times. An aliquot of BAL fluid was removed and the inflammatory cells were counted on Sysmex (Sysmex UK, Milton Keynes). Neutrophils were expressed in millions/animal (mean ±s.e.mean)."}, "[2]": {"test_system": "methacholine-induced bronchoconstriction", "assay": "Lung function in anaesthetized guinea-pigs, methacholine challenge", "format": "in vivo, Dunkin-Hartley guinea pig", "method": "(§1) Evaluation of Lung Function in Anaesthetized Guinea-Pigs\n(§2) Male Dunkin-Hartley guinea pigs (300-600 g) were weighed and dosed with vehicle (0.05M phosphate, 0.1% Tween 80, 0.6% saline, pH 6) or compound via the intratracheal route under recoverable gaseous anaesthesia (5% halothane in oxygen). Animals were dosed with compound or vehicle two hours prior to the administration of histamine or methacholine.\n(§3) Guinea pigs were anaesthetized with pentobarbitone (1 mL/kg of 60 mg/mL solution i.p.) approximately 30 minutes prior to the first bronchoconstrictor administration. The trachea was cannulated and the animal ventilated using a constant volume respiratory pump (Harvard Rodent Ventilator model 683) at a rate of 60 breath/min and a tidal volume of 5 ml/kg. A jugular vein was cannulated for the administration of histamine, methacholine or maintenance anaesthetic (0.1 mL of pentobarbitone solution, 60 mg/mL, as required).\n(§4) The animals were transferred to a Flexivent System (SCIREQ, Montreal, Canada) in order to measure airway resistance. The animals were ventilated (quasi-sinusoidal ventilation pattern) at 60 breaths/min at a tidal volume of 5 mL/kg. A positive end expiratory pressure of 2-3 cmH2O was applied. Respiratory resistance was measured using the Flexivent “snapshot” facility (1 second duration, 1 Hz frequency). Once stable baseline resistance value had been obtained the animals were given histamine or methacholine in ascending doses (0.5, 1, 2, 3 and 5 μg/kg, i.v.) at approximately 4-minute intervals via the jugular catheter. After each administration of bronchoconstrictor the peak resistance value was recorded. Guinea pigs were euthanized with approximately 1.0 mL pentobarbitone sodium (Euthatal) intravenously after the completion of the lung function measurements. Percentage bronchoprotection produced by a compound was calculated at each dose of brochoconstrictor as follows:\n(§5) Where % change Rveh is the mean of the maximum percentage change in airway resistance in the vehicle treated group. The results reported were measured after 5 μg/kg histamine or methacholine and were expressed as percentage bronchoprotection (mean ±s.e.mean)."}, "[3]": {"test_system": "histamine-induced bronchoconstriction", "assay": "Lung function in anaesthetized guinea-pigs, histamine challenge", "format": "in vivo, Dunkin-Hartley guinea pig", "method": "as §1, §2, §3, §4, §5"}, "[4]": {"test_system": "guinea pig trachea", "assay": "Bronchodilator onset in guinea pig isolated tracheal ring contracted with methacholine", "details": "roflumilast 1 μM alone", "method": "Evaluation of Bronchodilator Activity in the Guinea Pig Isolated Tracheal Ring Preparation\nGuinea pigs (300-500 g) were killed by cervical dislocation and the trachea was isolated. The trachea was cut into segments 2-3 cartilage rings in width and suspended in 10 ml organ baths in modified Krebs' solution (mM; NaCl, 90; NaHCO3, 45; KCl, 5; MgSO4.7H2O, 0.5; Na2HPO4.2H2O, 1; CaCl2, 2.25; glucose, 10; pH 7.4) gassed with 5% CO2, 95% […] at 37° C.). The tracheal rings were attached to an isometric force transducer for the measurement of isometric tension. The tissues were washed and a force of 1 g was applied to each tissue. The rings were contracted with methacholine (1 μM). Once the contraction had reached a plateau, vehicle (0.01% DMSO in distilled H2O), compound A (3 nM), roflumilast (1 μM) or a combination of compound A (3 nM) and roflumilast (1 μM) was added and the tissue left until the response had reached a plateau. Data were collected using the Chart 4 software (ADInstruments, Charlgrove, UK). The time to 90% of the maximum effect of the bronchodilator (onset time) was measured and expressed in min (mean ±s.e.mean)."}, "[5]": {"test_system": "LPS-induced TNFα production", "assay": "Inhibition of LPS-induced TNFα production in human PBMCs", "format": "cell-based", "details": "for inhibition at 0.03 µM: Homo sapiens, PBMC", "method": "Inhibition of Lipopolysacchamide (LPS)-Induced TNFα Production in Human Peripheral Blood Mononuclear Cells\nThe cells were then incubated with LPS (1 μg/mL) for 4 hours at 37° C. to induce TNFα production. At the end of the incubation period, the plates were centrifuged (300 g, 10 minutes) and 100 μL of the culture supernatant was analysed to quantify the TNFα released using a Fluorescence-linked immunosorbance assay (FLISA) assay kit (R&D Systems). Fluorescence levels were read on an FMAT plate reader. Inhibition curves were fitted using a 4-parameter logistic equation in a non-linear curve fitting routine and activity was expressed as pIC50 (mean ±s.e.mean)."}},
  "note": "Read-outs that look alike come from different tables or passages of the source.",
  "data": [
    {"compound": "CNC(=O)c1cc(Cl)c(OC(C)(C)C(=O)O)cc1OC[C@@H](O)CN1CCC2(CC1)Cc1cc(Cl)ccc1O2", "note": "[Compound W, 2-{2-Chloro-5-{[(2S)-3-(5-chloro-1′H,3H-spiro[1-benzofuran-2,4′-piperidin]-1′-yl)-2-hydroxypropyl]oxy}-4-[(methylamino)carbonyl]phenoxy}-2-methylpropanoic acid]", "values": [
      {"measurement": "inhibition of neutrophilia", "setting": "[1]; Compound W 3 ng/kg intratracheal", "result": 56, "unit": "%"},
      {"measurement": "neutrophils in BAL", "setting": "[1]; Compound W 3 ng/kg, vehicle/LPS 11±1.8", "result": "6.3±1.1", "unit": "million/animal"}
    ]},
    {"compound": "CCCC1O[C@@H]2C[C@H]3[C@@H]4CCC5=CC(=O)C=C[C@]5(C)[C@H]4[C@@H](O)C[C@]3(C)[C@]2(C(=O)CO)O1", "note": "(some centres unmarked) [Budesonide, reference compound]", "values": [
      {"measurement": "inhibition of neutrophilia", "setting": "[1]; budesonide 0.1 μg/kg intratracheal 30 min prior to LPS", "result": 51, "unit": "%"},
      {"measurement": "neutrophils in BAL", "setting": "[1]; budesonide 0.1 μg/kg intratracheal, vehicle/LPS 14±1.6", "result": "7.1±0.77", "unit": "million/animal"}
    ]},
    {"compound": "CC(=O)Nc1ccc(O)cc1OC[C@@](C)(O)CNC1CCN(Cc2ccc(Cl)cc2)CC1", "note": "[Compound X, N-{2-[((2S)-3-{[1-(4-chlorobenzyl)piperidin-4-yl]amino}-2-hydroxy-2-methylpropyl)oxy]-4-hydroxyphenyl}acetamide]", "values": [
      {"measurement": "inhibition of neutrophilia", "setting": "[1]; Compound X 30 μg/kg intratracheal", "result": 30, "unit": "%"},
      {"measurement": "neutrophils in BAL", "setting": "[1]; Compound X 30 μg/kg, vehicle/LPS 12±1.7", "result": "8.5±0.75", "unit": "million/animal"}
    ]},
    {"compound": "C[N+]1(C)[C@@H]2C[C@@H](OC(=O)C(O)(c3cccs3)c3cccs3)C[C@H]1[C@@H]1O[C@@H]12", "note": "[tiotropium bromide, reference compound]", "values": [
      {"measurement": "increase in resistance", "setting": "[2]; tiotropium bromide 0.03 pg/kg intratracheal, methacholine 5 μg/kg, vehicle 1898±211%", "result": "1656±269", "unit": "%"},
      {"measurement": "inhibition of methacholine-induced bronchoconstriction", "setting": "[2]; tiotropium bromide intratracheal 2 h before, methacholine 5 μg/kg i.v.", "result": 13, "unit": "%"}
    ]},
    {"compound": "O=C(Nc1c(Cl)cncc1Cl)c1ccc(OC(F)F)c(OCC2CC2)c1", "note": "[Roflumilast, 3-(cyclopropylmethoxy)-N-(3,5-dichloro-4-pyridinyl)-4-(difluoromethoxy)benzamide, reference compound]", "values": [
      {"measurement": "inhibition of histamine-induced bronchoconstriction", "setting": "[3]; roflumilast 1 mg/kg intratracheal 2 h before, histamine 5 μg/kg i.v.", "result": 35, "unit": "%"},
      {"measurement": "increase in bronchoconstriction", "setting": "[3]; roflumilast 1 mg/kg intratracheal, histamine 5 μg/kg, vehicle 1100±161%", "result": "695±177", "unit": "%"},
      {"measurement": "onset time (time to 90% of the maximum effect)", "setting": "[4]", "result": "26 ± 1.4", "unit": "min"},
      {"measurement": "inhibition at 0.03 µM", "setting": "[5]; roflumilast 30 nM alone, PBMCs, LPS 1 μg/mL, read-out: inhibition of LPS-induced TNFα production", "result": "70 ± 4.1", "unit": "%"},
      {"measurement": "inhibition at 0.03 µM", "setting": "[5]; roflumilast 30 nM in the presence of 30 nM compound A, read-out: maximum inhibition of TNFα production", "result": "92 ± 0.4", "unit": "%"},
      {"measurement": "maximum inhibition of TNFα production", "setting": "[5]; roflumilast 30 nM in the presence of 3 nM compound A", "result": "82±2.3", "unit": "%"}
    ]}
  ]
}
